Measurements taken from patent US11337949B2, “Thermostable formulation of biologically active substances” (CAPRETTO EHF., priority 2016, dated 2022).

Tests used:
[1] = Thermostability of aqueous lipid solutions; type: physicochemical; settings: exposed to temperature below 10° C. or above 25° C.
Excerpt: EP-0351651 describes the use of PEG-C8/C10-glycerides as an absorption promoter for insulin. Especially for orally and buccally administered insulin. From the disclosure it appears that an increase in concentration of PEG-C8/C10-glycerides results in an increase in absorption. With respect to a nasal composition the composition described has a relatively high concentration of absorption enhancer, namely about 50% w/w. WO2003070280 (Absorption enhancing agent) describes the use of PEG-C8/C10-glycerides as absorption promoter for e.g. sumatriptan, in most preferred concentrations of 0.1-10%. Here, the function of PEG-C8/C10-glycerides should not promote absorption, since that will remove the active ingredient from the surface such as the mucosal surface, and into the systemic circulation. However, PEG-C8/C10 is able to act as a thermostabilizer for formulations containing lipids that are insoluble in water.

[2] = system: Staphylococcus aureus; settings: cited from earlier work
[3] = system: Staphylococcus epidermis; settings: cited from earlier work
[4] = system: Streptococci A; settings: cited from earlier work
[5] = system: Streptococci pyogenes; settings: cited from earlier work
[6] = system: Haemophilus influenzae; settings: cited from earlier work
[7] = system: Streptococcus D; settings: cited from earlier work
[8] = system: Streptococcus mutans; settings: cited from earlier work
[9] = system: Streptococcus pneumoniae; settings: cited from earlier work
[10] = system: Corynebacteria sp.; settings: cited from earlier work
[11] = system: Nococardia asteroides; settings: cited from earlier work
[12] = system: Micrococcus sp.; settings: cited from earlier work
[13] = system: Pseudomonas aeruginosa; settings: cited from earlier work
[14] = system: Listeria monocytogenes; settings: cited from earlier work
[15] = system: Lactobacillus jensenii; settings: cited from earlier work
[16] = system: Chlamydia trachomatis; settings: cited from earlier work
[17] = system: Neisseria gonorrhoeae; settings: cited from earlier work
[18] = system: Helicobacter pylori; settings: cited from earlier work
[19] = system: Campylobacter jejuni; settings: cited from earlier work
[20] = system: Candida albicans (yeast); settings: cited from earlier work
[21] = system: Herpes virus type 1 (HSV-1); settings: cited from earlier work
[22] = system: Herpes virus type 2 (HSV-2); settings: cited from earlier work
[23] = system: Respiratory syncytial virus (RSV); settings: cited from earlier work
[24] = system: Influenza A virus; settings: cited from earlier work
[25] = system: Parainfluenza virus type 2; settings: cited from earlier work

For `CCCCCCCCCC(=O)OCC(O)CO` (stereo not shown) [monocaprin], the “precipitation in aqueous formulations” value [1] is listed as “will easily precipitate”, the bactericidal effect [2] is listed as “bacteriocid” and the bactericidal effect [3] is listed as “bacteriocid”. The bactericidal effect [4] was “bacteriocid”, the bactericidal effect [5] was “bacteriocid” and the bactericidal effect [6] was “bacteriocid”. The effectiveness against microbe [7] was “effective”, the effectiveness against microbe [8] was “effective” and the effectiveness against microbe [9] was “effective”. The effectiveness against microbe [10] was “effective”, the effectiveness against microbe [11] was “effective” and the effectiveness against microbe [12] was “effective”. The effectiveness against microbe [13] was “effective”, the effectiveness against microbe [14] was “effective” and the effectiveness against microbe [15] was “effective”. The effectiveness against microbe [16] was “effective”, the effectiveness against microbe [17] was “effective” and the effectiveness against microbe [18] was “effective”. The effectiveness against microbe [19] was “effective”, the effectiveness against microbe [20] was “effective” and the effectiveness against virus [21] was “effective”. The effectiveness against virus [22] was “effective”, the effectiveness against virus [23] was “effective” and the effectiveness against virus [24] was “effective”. For the same molecule, the effectiveness against virus [25] was “effective”.
